Measured values as given in ChEMBL document CHEMBL5032503 (J Med Chem, 2021).
Values belong to the molecule of their own block, whether it stands above or below them. The source made the active and inactive calls. The calls are words filed in the database; no cut-off is given here.

How the values were obtained:
[1] = biological target: T1, Nuclear receptor subfamily 2 group E member 1 (Homo sapiens, UniProt Q9Y466); experiment: Stabilization of human recombinant TLX LBD assessed as change in melting temperature at 500 uM by DSF assay
T1 sequence (Q9Y466 whole entry, the tested form may be a part): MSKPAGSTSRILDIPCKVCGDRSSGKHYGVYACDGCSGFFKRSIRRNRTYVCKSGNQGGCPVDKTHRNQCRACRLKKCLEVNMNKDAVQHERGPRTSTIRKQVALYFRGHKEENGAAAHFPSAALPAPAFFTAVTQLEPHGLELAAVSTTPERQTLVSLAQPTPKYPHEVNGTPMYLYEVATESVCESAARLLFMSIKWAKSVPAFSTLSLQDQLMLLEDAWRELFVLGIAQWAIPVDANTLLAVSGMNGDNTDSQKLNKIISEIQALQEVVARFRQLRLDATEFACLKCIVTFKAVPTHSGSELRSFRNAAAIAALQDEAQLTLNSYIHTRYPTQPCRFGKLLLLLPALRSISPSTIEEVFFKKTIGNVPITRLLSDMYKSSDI

[2] = biological target: T1, Nuclear receptor subfamily 2 group E member 1; experiment: Inverse agonist activity at full length TLX activating element expressed in human HEK293T cells coexpressing human full-length TLX/Gal4-VP 16 assessed as fold […] in reporter activity at 100 uM by luciferase reporter gene assay relative to control; type: cell-based; conditions: filed as inverse agonist
[3] = biological target: T1, Nuclear receptor subfamily 2 group E member 1; experiment: Agonist activity at in human TLX LBD expressed in human HEK293T cells coexpressing Gal4-VP 16 assessed as fold […] in reporter activity at 100 uM measured after 14 hrs by luciferase reporter gene assay relative to control; type: cell-based; conditions: filed as agonist
[4] = biological target: T1, Nuclear receptor subfamily 2 group E member 1; experiment: Agonist activity at full length TLX activating element expressed in human HEK293T cells coexpressing human full-length TLX/Gal4-VP 16 assessed as fold increase in reporter activity at 100 uM by luciferase reporter gene assay relative to control; type: cell-based; conditions: filed as agonist
[5] = biological target: T1, Nuclear receptor subfamily 2 group E member 1; experiment: Agonist activity at in human TLX LBD expressed in human HEK293T cells coexpressing Gal4-VP 16 assessed as remaining activity measured after 14 hrs by luciferase reporter gene assay relative to control; type: cell-based; conditions: filed as agonist
[6] = biological target: T1, Nuclear receptor subfamily 2 group E member 1; experiment: Agonist activity at in human TLX LBD expressed in human HEK293T cells coexpressing Gal4-VP 16 assessed as increase in reporter activity measured after 14 hrs by luciferase reporter gene assay relative to control; type: cell-based
[7] = biological target: T1, Nuclear receptor subfamily 2 group E member 1; experiment: Agonist activity at TAE expressed in human HEK293T cells coexpressing human full-length TLX/Gal4-VP 16 assessed as renilla luciferase reporter activity incubated for 14 hrs by Dual-glo luciferase
[8] = Effect on Gal4-VP16 plasmid transfected in human HEK293T cells assessed as reporter activity incubated for 14 hrs by luciferase assay; type: functional, HEK-293T
T98G [9] = experiment: Effect on TLX regulated gene expression in human T98G cells assessed as induction of mRNA expression at 50 uM after 8 hrs by qRT-PCR analysis; type: functional, cell-based
T98G [10] = experiment: Cytotoxicity against human T98G cells assessed as cell viability by WST-1 assay; type: functional, cell-based
T98G [11] = experiment: Effect on TLX regulated gene expression in human T98G cells assessed as induction of SIRT1 mRNA expression at 50 uM after 8 hrs by qRT-PCR analysis; type: functional, cell-based
T98G [12] = experiment: Inhibition of cell migration in human T98G cells at 75 uM incubated for 24 hrs by crystal violet staining based by Boyden chamber method; type: functional
T98G [13] = experiment: Effect on TLX regulated gene expression in human T98G cells assessed as decrease in PTEN mRNA expression at 50 uM after 8 hrs by qRT-PCR analysis; type: functional, cell-based
[14] = biological target: T1, Nuclear receptor subfamily 2 group E member 1
Description: Binding affinity to TLX LBD expressed in His6-tagged Escherichia coli Rosetta assessed as binding constant measured after 300 sec at 200 mM by isothermal titration calorimetry

T98G [15] = experiment: Effect on TLX regulated gene expression in human T98G cells assessed as decrease in TET3 mRNA expression at 50 uM after 8 hrs by qRT-PCR analysis; type: functional, cell-based
T98G [16] = experiment: Induction of apoptosis in human T98G cells assessed as viable cells at 100 nM measured after 72 hrs by propidium iodide staining based flow cytometry; type: functional, cell-based
[17] = biological target: T1, Nuclear receptor subfamily 2 group E member 1; experiment: Agonist activity at full length TLX activating element expressed in human HEK293T cells coexpressing human full-length TLX/Gal4-VP 16 assessed as decrease in reporter activity at 100 uM by luciferase reporter gene assay relative to control
[18] = biological target: T1, Nuclear receptor subfamily 2 group E member 1; experiment: Inverse agonist activity at in human TLX LBD expressed in human HEK293T cells coexpressing Gal4-VP 16 assessed as fold increase in reporter activity at 100 uM measured after 14 hrs by luciferase reporter gene assay relative to control; type: cell-based; conditions: filed as inverse agonist
[19] = biological target: T1, Nuclear receptor subfamily 2 group E member 1; experiment: Agonist activity at human TLX LBD expressed in human HEK293T cells coexpressing Gal4-VP 16 incubated for 14 hrs at 100 uM; type: cell-based
[20] = biological target: T1, Nuclear receptor subfamily 2 group E member 1; experiment: Agonist activity at human TLX LBD expressed in human HEK293T cells coexpressing Gal4-VP 16 incubated for 14 hrs at 300 uM; type: cell-based

SMILES: O=C1Nc2ccccc2Nc2ccccc21
- ΔTm [1]: 0.6 °C
- fold change (FC) [2]: 1.12
- fold change (FC) [3]: 0.47

SMILES: Cc1cn(-c2cc(N)cc(C(F)(F)F)c2)cn1
- ΔTm [1]: -3.2 °C
- fold change (FC) [3]: 0.44
- fold change (FC) [4]: 0.65

SMILES: CC(C)NC[C@H](O)COc1cccc2ccccc12 [LEVOPROPRANOLOL]
- fold change (FC) [5]: 0.25
- EC50 ([6]; read-out: EC50): 72 µM

SMILES: CC(C)N(C)CC(O)COc1cccc2ccccc12 (centres undefined)
- EC50 ([6]; read-out: EC50): > 100 µM

SMILES: CC(=O)N1CCN(c2ccc(O)cc2)CC1
- ΔTm [1]: 0.8 °C
- fold change (FC) [3]: 0.5
- fold change (FC) [4]: 0.86

SMILES: CC(C)NCC(O)COc1cccc2ccccc12 (racemic) [PROPRANOLOL]
- fold change (FC) [5]: 0.08
- EC50 ([6]; read-out: EC50): 32 µM
- Activity [8]: 8%
- Activity (T98G [9]): Active
- Activity (T98G [10]): Active
- EC50 [7]: 37 µM
- Activity (T98G [11]): Active
- cell migration inhibition (active/not active call) (T98G [12]): Active
- Activity (T98G [13]): Active
- Kd [14]: 0.5 µM
- Activity (T98G [15]): Active
- Activity (T98G [16]): inactive
- EC50 [17]: 32 µM

SMILES: CC(C)OCC(O)COc1cccc2ccccc12 (centres undefined)
- fold change (FC) [5]: 0.29
- EC50 ([6]; read-out: EC50): 83 µM

SMILES: COc1ccc2[nH]c(SC)nc2c1
- ΔTm ([1]; filed as modulator): 0.5 °C
- fold change (FC) [2]: 1.33
- fold change (FC) [3]: 2.7
- fold change (FC) [18]: 2.7

SMILES: Clc1ccc(C(c2ccccc2)N2CCNCC2)cc1 (centres undefined)
- ΔTm [1]: -2.3 °C
- fold change (FC) [3]: 0.37
- fold change (FC) [4]: 0.57

SMILES: NC1CCc2[nH]c3ccccc3c2C1 (centres undefined)
- ΔTm ([1]; filed as agonist): 2.4 °C
- fold change (FC) [5]: 0.5
- fold change (FC) [2]: 2.1
- EC50 ([6]; read-out: EC50): 67 µM
- EC50 [7]: > 100 µM
- fold change (FC) [3]: 0.45
- fold change (FC) [4]: 1.98

SMILES: OC(COc1cccc2ccccc12)CN1CCCCC1 (centres undefined)
- Activity [19]: inactive

SMILES: CC(C)NCC(O)c1ccc(NS(C)(=O)=O)cc1 (racemic) [SOTALOL]
- EC50 ([6]; hek293t): Not Active
- Activity (T98G [10]): Active
- cell migration inhibition (active/not active call) (T98G [12]): inactive
- Activity (T98G [16]): inactive

SMILES: COC(CNC(C)C)COc1cccc2ccccc12 (centres undefined)
- fold change (FC) [5]: 0.28
- EC50 ([6]; read-out: EC50): 52 µM

SMILES: CC(C)NCCCOc1cccc2ccccc12
- fold change (FC) [5]: 0.42
- EC50 ([6]; read-out: EC50): 50 µM

SMILES: O=c1[nH]nc(Cc2ccccc2)c2ccccc12
- ΔTm [1]: -0.5 °C
- fold change (FC) [3]: 0.17
- fold change (FC) [4]: 0.57

SMILES: CCCCOc1cc(C(=O)NC)c2ccccc2n1
- ΔTm [1]: 1.1 °C
- fold change (FC) [3]: 32
- fold change (FC) [4]: 0.68

SMILES: c1ccc2c3c([nH]c2c1)CNCC3 [TRYPTOLINE]
- ΔTm ([1]; filed as agonist): 1.2 °C
- fold change (FC) [5]: 0.4
- fold change (FC) [2]: 2.2
- EC50 ([6]; read-out: EC50): 74 µM
- EC50 [7]: > 100 µM
- fold change (FC) [3]: 0.47
- fold change (FC) [4]: 2.15

SMILES: CNC(=O)c1cc(Cl)c(N)cc1OC
- ΔTm [1]: -0.3 °C
- fold change (FC) [2]: 1.05
- fold change (FC) [3]: 0.46

Further lines, with some results ahead:

- ΔTm [1]: -1.4 °C
- fold change (FC) [3]: 0.34
- fold change (FC) [4]: 0.41
SMILES: O=C(O)CCCc1ccc(-c2ccccc2)cc1

- ΔTm ([1]; filed as agonist): 1.5 °C
- fold change (FC) [5]: 0.07
- fold change (FC) [2]: 2.3
- EC50 ([6]; read-out: EC50): 19.4 µM
- EC50 [7]: 43 µM
- fold change (FC) [3]: 0.27
SMILES: NCC(O)COc1cccc2ccccc12 (centres undefined)

- fold change (FC) [5]: 0.62
- EC50 ([6]; read-out: EC50): 5 µM
SMILES: CN1CC(=O)N2[C@H](c3ccc4c(c3)OCO4)c3[nH]c4ccccc4c3C[C@@H]2C1=O

- fold change (FC) [5]: 0.2
- EC50 ([6]; read-out: EC50): 47 µM
SMILES: CCCNCC(O)COc1ccccc1C(=O)CCc1ccccc1 (racemic) [PROPAFENONE]

- ΔTm ([1]; filed as modulator): 1.1 °C
- fold change (FC) [2]: 1.47
- fold change (FC) [18]: 3.3
SMILES: Cn1c(=O)[nH]c2[nH]cnc2c1=O

- ΔTm ([1]; filed as modulator): 1.2 °C
- fold change (FC) [2]: 1.8
- fold change (FC) [3]: 2.9
SMILES: Nc1cnc2ccccc2n1

- Activity [20]: inactive
SMILES: CC(C)NCC(O)COc1ccnc2ccccc12 (centres undefined)
- Activity (T98G [10]): Active
- cell migration inhibition (active/not active call) (T98G [12]): inactive
- Activity (T98G [16]): inactive

- fold change (FC) [5]: 0.4
- EC50 ([6]; read-out: EC50): 40 µM
SMILES: CC(C)NC[C@@H](O)COc1cccc2ccccc12 [DEXPROPRANOLOL]

- EC50 ([6]; hek293t): Not Active
SMILES: CC(C)NCC(O)COc1ccc(CC(N)=O)cc1 (racemic) [ATENOLOL]
- Activity (T98G [9]): inactive
- Activity (T98G [10]): Active
- Activity (T98G [11]): inactive
- cell migration inhibition (active/not active call) (T98G [12]): inactive
- Activity (T98G [13]): inactive
- Activity (T98G [15]): inactive
- Activity (T98G [16]): inactive
